Source: US7084154B2, “2-(aminomethyl) arylamide analgesics” (Pharmacopeia Drug Disclovery, Inc., priority 2003, dated 2006)

Tested on: male mice (strain ICR)
Experiment: Formalin paw licking test in mice
Format: in vivo
Conditions: 10 mg/kg i.v. in saline, 15 minutes before sub-plantar 3% formalin; compared to vehicle control
Description: The activity of the compounds in the in vitro screen was confirmed in vivo. Compound 103 was dissolved in saline and administrated to male mice (strain ICR) at 10 mg/kg i.v. in the tail vein. After 15 minutes, a 3% solution of formalin was administered sub-plantar and the time spent licking the paw was monitored in 5 minute segments over a 45 minute period. The experiment was conducted on 1–6 mice per group and compared to a control set (5 mice), which were given the vehicle alone prior to formalin injection. The first phase response was reduced by approximately 50%. The person of skill in the art would accept this test as predictive of therapeutic utility for analgesia.

SMILES: CC1c2cc(O)ccc2CCN1Cc1ccccc1C(=O)NCC/C=C/c1ccccc1 (stereo not shown) [Compound 103, 2-(7-hydroxy-1-methyl-3,4-dihydro-1H-isoquinolin-2-ylmethyl)-N-(4-phenyl-but-3-enyl)-benzamide]
- reduction of first phase response (time spent licking the paw): approximately 50%
